In patent US11358969B2, “Indole AHR inhibitors and uses thereof” (Ikena Oncology, Inc., priority 2017, dated 2022):

What was measured:
[1] = In Vitro Mouse liver S9 Metabolic Stability Assay (Example 1D); type: in vitro ADME; conditions: CD-1 mouse liver S9, 1 μM compound, 1 mg/mL S9 protein, 37° C., NADPH regenerating system, UDPGA, PAPS
Method: CD-1 mouse liver S9 were purchased from Corning or XenoTech LLC or BioreclamationIVT, LLC or WuXi prepared. The cells were stored at −80° C. in a freezer before use. β-Nicotinamide adenine dinucleotide phosphate (NADP), Glucose 6-phosphate (G6P), Glucose 6-phosphate dehydrogenase from yeast (G6PDH), Uridine 5′-diphophoglucuronic acid trisodium salt (UDPGA) and Adenosine 3′-phosphate 5′-phosphosulfate lithium salt hydrate (PAPS) were available commercially from Sigma.
Compounds were diluted in DMSO to make 10 mM stock solution. 5 μL of this stock solution (10 mM, DMSO) was diluted with 45 μL DMSO and 450 μL 50% Methanol/Water to make intermediate stock solution (100 μM, 45% MeOH, 10% DMSO). 50 μL of intermediate stock solution was diluted with 450 μL 100 mM phosphate buffer to make a final stock solution (10 μM, 4.5% MeOH, 1% DMSO). 10 uL of final stock solution was added to 90 uL liver S9 system (final concentration of 1 μM, 0.45% MeOH, 0.1% DMSO).
Test compounds were incubated at 37° C. with liver S9 (pooled from multiple donors) at 1 μM in the presence of a NADPH regenerating system, UDPGA, and PAPS at 1 mg/mL S9 protein. Time samples (0 and 60 minutes) were removed and immediately mixed with cold acetonitrile containing internal standard (IS). Samples were analyzed by LC/MS/MS and disappearance of test compounds were assessed based on peak area ratios of analyte /IS (no standard curve). All samples were injected and analyzed using LC-MS/MS. The analyte/internal standard peak area ratios were converted to percentage remaining (% Remaining) with the following equation: % Remaining at 60 min=(Peak area ratio of analyte to IS at 60 min/Peak area ratio of analyte to IS at t=0)×100%. Table 5. Mouse Stability Data According to Example 1D.

AHR = target: T1, AHR (UniProt P35869); assay: DRE-Luciferase Reporter Assay (Alternate Method) (Example 1B); type: cell-based, murine or human; conditions: cell line and AHR activating ligand not specified
T1 construct: IC50
T1 sequence (P35869 1-848): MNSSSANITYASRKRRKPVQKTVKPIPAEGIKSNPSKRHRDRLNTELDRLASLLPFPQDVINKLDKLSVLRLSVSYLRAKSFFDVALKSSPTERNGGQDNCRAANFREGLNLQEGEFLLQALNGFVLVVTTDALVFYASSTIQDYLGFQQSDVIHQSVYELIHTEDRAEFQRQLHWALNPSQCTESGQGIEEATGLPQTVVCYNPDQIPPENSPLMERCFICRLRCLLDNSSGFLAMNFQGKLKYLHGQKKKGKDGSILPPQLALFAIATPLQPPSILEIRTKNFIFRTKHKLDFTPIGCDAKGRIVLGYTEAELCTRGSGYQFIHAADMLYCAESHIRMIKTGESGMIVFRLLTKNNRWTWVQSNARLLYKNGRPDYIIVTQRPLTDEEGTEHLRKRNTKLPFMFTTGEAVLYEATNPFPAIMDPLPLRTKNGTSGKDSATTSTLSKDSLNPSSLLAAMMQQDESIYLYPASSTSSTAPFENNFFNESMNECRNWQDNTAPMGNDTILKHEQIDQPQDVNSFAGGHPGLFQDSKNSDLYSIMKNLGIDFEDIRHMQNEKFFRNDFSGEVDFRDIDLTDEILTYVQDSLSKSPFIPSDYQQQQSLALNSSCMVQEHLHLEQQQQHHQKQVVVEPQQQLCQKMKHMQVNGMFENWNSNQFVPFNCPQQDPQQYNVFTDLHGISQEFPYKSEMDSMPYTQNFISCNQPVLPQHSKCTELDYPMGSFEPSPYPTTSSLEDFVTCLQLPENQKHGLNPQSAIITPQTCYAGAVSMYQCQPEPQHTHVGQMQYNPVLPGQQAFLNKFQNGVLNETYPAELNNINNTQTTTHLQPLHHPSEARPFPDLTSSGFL

[2] = Mouse Pharmacokinetic Study (Example 1C); type: in vivo; conditions: plasma, CD-1 mice; for bioavailability / AUC(0-inf) / AUC(0-t) / clearance / half-life / Vd / Cmax / Tmax: mouse; for Vd: read-out: Vdss
Method: Formulations of compounds set forth in Table 4 were administered intravenously or orally via gavage to CD-1 mice. Typically, at 0.167, 0.5, 1, 2, 4, 6, 12, and 24 hours post-dose, blood was collected and processed to plasma by centrifugation and stored at −80° C. until analysis.
Internal standard was added to each sample prior to protein precipitation with acetonitrile. The precipitates were filtered through a Phree phospholipid removal filter plate and the samples were analyzed by LC/MS/MS. A standard curve was prepared in plasma from typically from 1.0 ng/mL to 3000 ng/mL and processed in the same manner as the samples. Sample analysis was typically performed on a suitable LC/MS/MS system fitted with an analytical UPLC column and compounds eluted from the analytical column with a gradient from 30-95% 0.1% formic acid (v/v) in ACN: 0.1% formic acid (v/v) in water. Mass spectrometric detection of test compound and the internal standard was performed by MRM in positive mode. The pharmacokinetics of each compound were analyzed by Phoenix WinNonlin software (Pharsight, St. Louis, Mo.) via non-compartmental analysis.

[3] = po, 15 mg/kg, 3.00 mg/mL in DMSO:solutol:water = 5:10:85, solution

| Mouse S9 Stability: % Remaining After 60 Minutes [1] | IC50 (AHR) | bioavailability ([2]; po, 30 mg/kg) | AUC(0-inf) ([2]; iv, 3 mg/kg) | AUC(0-t) ([2]; iv, 3 mg/kg) | clearance ([2]; iv, 3 mg/kg) | half-life ([2]; iv, 3 mg/kg) | Vd ([2]; iv, 3 mg/kg) | AUC(0-inf) ([2]; po, 30 mg/kg) | AUC(0-t) ([2]; po, 30 mg/kg) | Cmax ([2]; po, 30 mg/kg) | Tmax ([2]; po, 30 mg/kg) | half-life ([2]; po, 30 mg/kg) | Tlast [2, 3] | bioavailability [2, 3] | Tmax [2, 3] | SMILES |
| --- | --- | --- | --- | --- | --- | --- | --- | --- | --- | --- | --- | --- | --- | --- | --- | --- |
| 0% | < 500 nM | 7% | 537 ng·h/mL | 522 ng·h/mL | 93.1 mL/min/kg | 0.7 h | 2.7 L/kg | 373 ng·h/mL | 370 ng·h/mL | 574 ng/mL | 0.2 h | 0.8 h |  |  |  | O=C(c1cnn2c(NCCc3c[nH]c4ccccc34)cc(-c3cncc(F)c3)nc12)N1CCOCC1 [I-65, [5-(5-Fluoro-3-pyridyl)-7-[2-(1H-indol-3-yl)ethylamino]pyrazolo[1,5-a]pyrimidin-3-yl]-morpholino-methanone] |
| 0% | < 500 nM |  | 92 ng·h/mL | 88 ng·h/mL | 540 mL/min/kg | 2.18 h | 43.2 L/kg |  |  |  |  |  | 0 h | 0% | 0 h | Cc1[nH]c2c(F)cc(F)cc2c1CCNc1cc(-c2cncc(F)c2)nc2c(C(C)C)cnn12 [I-107, N-[2-(5,7-Difluoro-2-methyl-1H-indol-3-yl)ethyl]-5-(5-fluoro-3-pyridyl)-3-isopropyl-pyrazolo[1,5-a]pyrimidin-7-amine] |
| 13% | < 500 nM | 39% | 3030 ng·h/mL | 2410 ng·h/mL | 16.5 mL/min/kg | 12 h | 13.7 L/kg | 11200 ng·h/mL | 9360 ng·h/mL | 840 ng/mL | 2 h | 9.6 h |  |  |  | Fc1cncc(-c2nc(N[C@@H]3CCc4[nH]c5ccccc5c4C3)n3ncc(Br)c3n2)c1 [I-154, (3R)—N-[8-Bromo-2-(5-fluoro-3-pyridyl)pyrazolo[1,5-a][1,3,5]triazin-4-yl]-2,3,4,9-tetrahydro-1H-carbazol-3-amine] |
| 2% | < 500 nM |  |  |  |  |  |  |  |  |  |  |  |  |  |  | CC(C)(O)c1cnn2c(NCCc3c[nH]c4ccccc34)cc(-c3cncc(F)c3)nc12 [I-177, 2-[5-(5-Fluoro-3-pyridyl)-7-[2-(1H-indol-3-yl)ethylamino]pyrazolo[1,5-a]pyrimidin-3-yl]propan-2-ol] |
| 0% | < 500 nM |  |  |  |  |  |  |  |  |  |  |  |  |  |  | Cc1cnn2c(NCCc3cc[nH]c3)cc(-c3cncc(F)c3)nc12 [I-196, 5-(5-Fluoro-3-pyridyl)-3-methyl-N-[2-(1H-pyrrol-3-yl)ethyl]pyrazolo[1,5-a]pyrimidin-7-amine] |
| 30% | < 500 nM | 52% | 772 ng·h/mL | 765 ng·h/mL | 64.8 mL/min/kg | 4.3 h | 12.1 L/kg | 4050 ng·h/mL | 3960 ng·h/mL | 721 ng/mL | 1 h | 4.2 h |  |  |  | C[C@@H](O)c1cnn2c(N[C@@H]3CCc4[nH]c5ccccc5c4C3)cc(-c3cncc(F)c3)nc12 [I-198a, (1R)-1-[5-(5-Fluoro-3-pyridyl)-7-[[(3R)-2,3,4,9-tetrahydro-1H-carbazol-3-yl]amino]pyrazolo[1,5-a]pyrimidin-3-yl]ethanol] |
| 0% | < 500 nM |  |  |  |  |  |  |  |  |  |  |  |  |  |  | Cc1[nH]c2c(F)cccc2c1CCNc1nc(-c2cncc(F)c2)nc2ccnn12 [I-200, N-[2-(7-fluoro-2-methyl-1H-indol-3-yl)ethyl]-2-(5-fluoro-3-pyridyl)pyrazolo[1,5-a][1,3,5]triazin-4-amine] |
| 0% | < 500 nM |  |  |  |  |  |  |  |  |  |  |  |  |  |  | Cc1[nH]c2c(F)cccc2c1CCNc1nc(-c2cncc(F)c2)nc2c(C)cnn12 [I-202, N-[2-(7-Fluoro-2-methyl-1H-indol-3-yl)ethyl]-2-(5-fluoro-3-pyridyl)-8-methyl-pyrazolo[1,5-a][1,3,5]triazin-4-amine] |
| 0% | > 1500 nM |  |  |  |  |  |  |  |  |  |  |  |  |  |  | Fc1cncc(-c2cc(NCCc3c[nH]c4cccnc34)n3nccc3n2)c1 [I-208, 5-(5-Fluoro-3-pyridyl)-N-[2-(1H-pyrrolo[3,2-b]pyridin-3-yl)ethyl]pyrazolo[1,5-a]pyrimidin-7-amine] |
| 0% | 500 to 1000 nM |  |  |  |  |  |  |  |  |  |  |  |  |  |  | Cc1cnn2c(NCCc3c[nH]c4cccnc34)cc(-c3cncc(F)c3)nc12 [I-209, 5-(5-Fluoro-3-pyridyl)-3-methyl-N-[2-(1H-pyrrolo[3,2-b]pyridin-3-yl)ethyl]pyrazolo[1,5-a]pyrimidin-7-amine] |
| 0% | < 500 nM |  |  |  |  |  |  |  |  |  |  |  |  |  |  | Cc1[nH]c2c(F)cccc2c1CCNc1cc(-c2cncc(F)c2)nc2ccnn12 [I-214, N-[2-(7-Fluoro-2-methyl-1H-indol-3-yl)ethyl]-5-(5-fluoro-3-pyridyl)pyrazolo[1,5-a]pyrimidin-7-amine] |
| 0% | < 500 nM |  |  |  |  |  |  |  |  |  |  |  |  |  |  | Cc1[nH]c2c(F)cccc2c1CCNc1cc(-c2cncc(F)c2)nc2c(C)cnn12 [I-224, N-[2-(7-fluoro-2-methyl-1H-indol-3-yl)ethyl]-5-(5-fluoro-3-pyridyl)-3-methyl-pyrazolo[1,5-a]pyrimidin-7-amine] |
| 2% | < 500 nM |  |  |  |  |  |  |  |  |  |  |  |  |  |  | Cc1[nH]c2c(F)cccc2c1CCNc1cc(-c2cncc(F)c2)nc2c(C(F)(F)F)cnn12 [I-235, N-[2-(7-Fluoro-2-methyl-1H-indol-3-yl)ethyl]-5-(5-fluoro-3-pyridyl)-3-(trifluoromethyl)pyrazolo[1,5-a]pyrimidin-7-amine] |

| SMILES | Mouse S9 Stability: % Remaining After 60 Minutes [1] | IC50 (AHR) | bioavailability ([2]; po, 30 mg/kg) | AUC(0-inf) ([2]; iv, 3 mg/kg) | AUC(0-t) ([2]; iv, 3 mg/kg) | clearance ([2]; iv, 3 mg/kg) | half-life ([2]; iv, 3 mg/kg) | Vd ([2]; iv, 3 mg/kg) | AUC(0-inf) ([2]; po, 30 mg/kg) | AUC(0-t) ([2]; po, 30 mg/kg) | Cmax ([2]; po, 30 mg/kg) | Tmax ([2]; po, 30 mg/kg) | half-life ([2]; po, 30 mg/kg) | Tlast [2, 3] | bioavailability [2, 3] | Tmax [2, 3] |
| --- | --- | --- | --- | --- | --- | --- | --- | --- | --- | --- | --- | --- | --- | --- | --- | --- |
| Fc1cncc(-c2cc(OC3CCCC3)nc(NCCc3c[nH]c4ccccc34)n2)c1 [I-59, 4-(Cyclopentoxy)-6-(5-fluoro-3-pyridyl)-N-[2-(1H-indol-3-yl)ethyl]pyrimidin-2-amine] | 11% | < 500 nM | 22% | 949 ng·h/mL | 925 ng·h/mL | 53 mL/min/kg | 6.6 h | 11.2 L/kg | 2130 ng·h/mL | 2110 ng·h/mL | 719 ng/mL | 0.5 h | 4.3 h |  |  |  |
